Structures are written as SMILES.

As usually defined, the melting point is the temperature of the solid-liquid transition. Take `Cc1c(C(=O)C2C(=O)C3CCC(C3)C2=O)ccc(S(C)(=O)=O)c1C1=NOC(CCl)C1` (stereo not shown) [Compound 2.2, 3-[2-Methyl-3-(5-chloromethyl-4,5-dihydroisoxazol-3-yl)-4-methyl-sulfonylbenzoyl]bicyclo[3.2.1]octane-2,4-dione]: the melting point was in the range of 98 to 103 °C.

The values above are taken from patent US6599860B1, “Herbicidal halogenalkyl-substituted 3-(4,5-dihydroisoxazol-3-yl)-benzoyl-cyclohexenones” (BASF Aktiengesellschaft, priority 1999, dated 2003).
